Data from ChEMBL document CHEMBL1131823, “Triterpene and diterpene inhibitors of pyruvate dehydrogenase kinase (PDK)” (Bioorg Med Chem Lett, 1999).

What was measured:
Mus musculus [1] = assay: In vivo activity in a diabetic mouse at a dose of 1000 umol/kg/day on day1 after 2 hours; assay type: functional
Mus musculus [2] = assay: In vivo activity in a diabetic mouse at a dose of 1000 umol/kg/day on day 3 after 6 hr; assay type: functional
[3] = In vitro effective concentration in normal human dermal fibroblasts; assay type: functional
Mus musculus [4] = assay: In vivo activity in a diabetic mouse at a dose of 1000 umol/kg/day on day1 after 6 hr; assay type: functional
Mus musculus [5] = assay: In vivo activity in a diabetic mouse at a dose of 1000 umol/kg/day on day 3 after 4 hr; assay type: functional
Mus musculus [6] = assay: In vivo activity in a diabetic mouse at a dose of 1000 umol/kg/day on day 3 after 2 hr; assay type: functional
Mus musculus [7] = assay: In vivo activity in a diabetic mouse at a dose of 1000 umol/kg/day on day1 after 4 hr; assay type: functional
[8] = target: Pyruvate dehydrogenase kinase (Homo sapiens, UniProt Q15119+Q15120+Q16654+Q15118); assay: In vitro inhibitory activity against pyruvate dehydrogenase kinase was determined; assay type: protein assay
Mus musculus [9] = assay: In vivo activity in a diabetic mouse at a dose of 100 umol/kg/day on day 3 after 4 hr; assay type: functional
Mus musculus [10] = assay: In vivo activity in a diabetic mouse at a dose of 300 umol/kg/day on day 3 after 6 hr; assay type: functional
Mus musculus [11] = assay: In vivo activity in a diabetic mouse at a dose of 100 umol/kg/day on day 3 after 6 hr; assay type: functional
Mus musculus [12] = assay: In vivo activity in a diabetic mouse at a dose of 30 umol/kg/day on day1 after 4 hr; assay type: functional
Homo sapiens = organism: Homo sapiens; assay: In vitro effective concentration in normal human dermal fibroblasts; Inactive; assay type: functional
Mus musculus [13] = assay: In vivo activity in a diabetic mouse at a dose of 30 umol/kg/day on day1 after 6 hr; assay type: functional
Mus musculus [14] = assay: In vivo activity in a diabetic mouse at a dose of 100 umol/kg/day on day1 after 6 hr; assay type: functional
Mus musculus [15] = assay: In vivo activity in a diabetic mouse at a dose of 300 umol/kg/day on day1 after 6 hr; assay type: functional
Mus musculus [16] = assay: In vivo activity in a diabetic mouse at a dose of 30 umol/kg/day on day 3 after 4 hr; assay type: functional
Mus musculus [17] = assay: In vivo activity in a diabetic mouse at a dose of 300 umol/kg/day on day1 after 2 hr; assay type: functional
Mus musculus [18] = assay: In vivo activity in a diabetic mouse at a dose of 300 umol/kg/day on day 3 after 4 hr; assay type: functional
Mus musculus [19] = assay: In vivo activity in a diabetic mouse at a dose of 100 umol/kg/day on day1 after 4 hr; assay type: functional
Mus musculus [20] = assay: In vivo activity in a diabetic mouse at a dose of 300 umol/kg/day on day1 after 4 hr; assay type: functional
Mus musculus [21] = assay: In vivo activity in a diabetic mouse at a dose of 100 umol/kg/day on day 3 after 2 hr; assay type: functional
Mus musculus [22] = assay: In vivo activity in a diabetic mouse at a dose of 30 umol/kg/day on day 3 after 6 hr; assay type: functional
Mus musculus [23] = assay: In vivo activity in a diabetic mouse at a dose of 30 umol/kg/day on day 3 after 2 hr; assay type: functional
Mus musculus [24] = assay: In vivo activity in a diabetic mouse at a dose of 100 umol/kg/day on day1 after 2 hr; assay type: functional
Mus musculus [25] = assay: In vivo activity in a diabetic mouse at a dose of 300 umol/kg/day on day 3 after 2 hr; assay type: functional
Mus musculus [26] = assay: In vivo activity in a diabetic mouse at a dose of 30 umol/kg/day on day1 after 2 hr; assay type: functional
Mus musculus [27] = assay: In vivo activity in a diabetic mouse at a dose of 200 umol/kg/day on day1 after 4 hr; assay type: functional
Mus musculus [28] = assay: In vivo activity in a diabetic mouse at a dose of 200 umol/kg/day on day 3 after 2 hr; assay type: functional
Mus musculus [29] = assay: In vivo activity in a diabetic mouse at a dose of 200 umol/kg/day on day 3 after 6 hr; assay type: functional
Mus musculus [30] = assay: In vivo activity in a diabetic mouse at a dose of 200 umol/kg/day on day1 after 2 hr; assay type: functional
Mus musculus [31] = assay: In vivo activity in a diabetic mouse at a dose of 200 umol/kg/day on day1 after 6 hr; assay type: functional
Mus musculus [32] = assay: In vivo activity in a diabetic mouse at a dose of 200 umol/kg/day on day 3 after 4 hr; assay type: functional
Rattus norvegicus [33] = assay: Effect on blood lactate level after 0 hour of oral administration of compound at a dose of 300 umol/kg; assay type: functional
Rattus norvegicus [34] = assay: Effect on blood glucose level after 4 hours of oral administration of compound at a dose of 300 umol/kg; assay type: functional
Rattus norvegicus [35] = assay: Effect on blood glucose level after 0 hour of oral administration of compound at a dose of 300 umol/kg; assay type: functional
Rattus norvegicus [36] = assay: Effect on blood lactate level after 2 hours of oral administration of compound at a dose of 300 umol/kg; assay type: functional
Rattus norvegicus [37] = assay: Effect on blood lactate level after 4 hours of oral administration of compound at a dose of 300 umol/kg; assay type: functional
Rattus norvegicus [38] = assay: Effect on blood glucose level after 2 hours of oral administration of compound at a dose of 300 umol/kg; assay type: functional

With `O=C(O)C(Cl)Cl` [DICHLOROACETIC ACID] the Efficacy (Mus musculus [1]) was 59%, the Efficacy (Mus musculus [2]) was 56% and the EC50 [3] was 100 µM. It also gave an Efficacy (Mus musculus [4]) of 29%, an Efficacy (Mus musculus [5]) of 50% and an Efficacy (Mus musculus [6]) of 52%. For the same compound, the Efficacy (Mus musculus [7]) was 39%.
`C[C@]12CC/C(=N\O)C[C@H]1CC[C@@H]1[C@@H]2CC[C@]2(C)[C@@H](O)CC[C@@H]12` showed an IC50 [8] of 36 µM.
For `CC(C)c1ccc2c(c1)CC[C@H]1[C@](C)(CN)CCC[C@]21C`, the Efficacy (Mus musculus [9]) was 36%, the Efficacy (Mus musculus [10]) was 90% and the Efficacy (Mus musculus [11]) was 47%. For the same compound, the Efficacy (Mus musculus [12]) was -1%, the IC50 [8] was 9.5 µM and the EC50 (Homo sapiens) was “Not Active”. For the same compound, the Efficacy (Mus musculus [13]) was 11%, the Efficacy (Mus musculus [14]) was 22% and the Efficacy (Mus musculus [15]) was 65%. For the same compound, the Efficacy (Mus musculus [16]) was 2%, the Efficacy (Mus musculus [17]) was 68% and the Efficacy (Mus musculus [18]) was 86%. The Efficacy (Mus musculus [19]) was 28%, the Efficacy (Mus musculus [20]) was 69% and the Efficacy (Mus musculus [21]) was 26%. The Efficacy (Mus musculus [22]) was 19%, the Efficacy (Mus musculus [23]) was -4% and the Efficacy (Mus musculus [24]) was 30%. The Efficacy (Mus musculus [25]) was 85% and the Efficacy (Mus musculus [26]) was 18%.
Compound `C[C@]12CC[C@H]3[C@@H](CCC4=C/C(=N/CC(=O)O)CC[C@@H]43)[C@@H]1CC[C@@H]2O` has an IC50 [8] of 56 µM.
Compound `C[C@]12CC[C@H]3[C@@H](CCC4=CC(=O)CC[C@@H]43)[C@@H]1CC[C@@H]2O` [NANDROLONE] has an IC50 [8] of 120 µM.
With `CC(C)C1=CC2=CC[C@@H]3[C@](C)(CCC[C@@]3(C)C(=O)O)[C@H]2CC1` [ABIETIC ACID] the Efficacy (Mus musculus [27]) was 25%, the IC50 [8] was 20 µM and the Efficacy (Mus musculus [28]) was 24%. The EC50 (Homo sapiens) was “Not Active”, the Efficacy (Mus musculus [29]) was 29% and the Efficacy (Mus musculus [30]) was 45%. It also gave an Efficacy (Mus musculus [31]) of 42% and an Efficacy (Mus musculus [32]) of 22%.
In the case of `CC(C)C1=CC2=CC[C@@H]3[C@](C)(CCC[C@@]3(C)C(N)=O)[C@H]2CC1`, the Efficacy (Mus musculus [27]) is reported as -2%, the IC50 [8] is reported as 6.7 µM and the Efficacy (Mus musculus [28]) is reported as 13%. For the same compound, the EC50 (Homo sapiens) was “Not Active”, the Efficacy (Mus musculus [29]) was 16% and the Efficacy (Mus musculus [30]) was 4%. For the same compound, the Efficacy (Mus musculus [31]) was 16% and the Efficacy (Mus musculus [32]) was 9%.
With `CC(C)C1=CC2=CC[C@H]3[C@](C)(CO)CCC[C@]3(C)[C@H]2CC1` the Efficacy (Mus musculus [9]) was 10%, the Efficacy (Mus musculus [11]) was 24% and the IC50 [8] was ~ 10 uM. The EC50 (Homo sapiens) was “Not Active”, the Efficacy (Mus musculus [14]) was 19% and the Efficacy (Mus musculus [19]) was -8%. It also gave an Efficacy (Mus musculus [21]) of 7% and an Efficacy (Mus musculus [24]) of 7%.
Compound `C#C[C@]1(O)CC[C@H]2[C@@H]3CCC4=C/C(=N/O)CC[C@@H]4[C@H]3CC[C@@]21C` has an IC50 [8] of 5.8 µM.
In the case of `C[C@]12CC/C(=N\O)C[C@@H]1CC[C@@H]1[C@@H]2CC[C@]2(C)[C@@H](O)CC[C@@H]12`, the IC50 [8] is reported as 51 µM.
With `C[C@]12CC[C@H]3[C@@H](CCC4=C/C(=N/O)CC[C@@H]43)[C@@H]1CC[C@@H]2O` the IC50 [8] was 5.4 µM.
`C=C=C[C@]1(O)CC[C@H]2[C@@H]3CCC4=C/C(=N/O)CC[C@@H]4[C@H]3CC[C@@]21C` gave a Blood lactate (Rattus norvegicus [33]) of 1.01 mM, a Blood glucose (Rattus norvegicus [34]) of 49.3 mg/dL and an Efficacy (Mus musculus [9]) of 70%. The Efficacy (Mus musculus [10]) was 75%, the Efficacy (Mus musculus [11]) was 47% and the EC50 [3] was 1.7 µM. For the same compound, the Blood glucose (Rattus norvegicus [35]) was 49.5 mg/dL, the Efficacy (Mus musculus [12]) was -3% and the Blood lactate (Rattus norvegicus [36]) was 0.8 mM. For the same compound, the Blood lactate (Rattus norvegicus [37]) was 0.79 mM, the IC50 [8] was 0.84 µM and the EC50 (Homo sapiens) was “Not Active”. It also gave an Efficacy (Mus musculus [13]) of 2%, an Efficacy (Mus musculus [14]) of 26% and an Efficacy (Mus musculus [15]) of 51%. For the same compound, the Blood glucose (Rattus norvegicus [38]) was 49.1 mg/dL, the Efficacy (Mus musculus [16]) was 43% and the Efficacy (Mus musculus [17]) was -2%. The Efficacy (Mus musculus [18]) was 83%, the Efficacy (Mus musculus [19]) was 4% and the Efficacy (Mus musculus [20]) was 19%. The Efficacy (Mus musculus [21]) was 73%, the Efficacy (Mus musculus [22]) was -6% and the Efficacy (Mus musculus [23]) was 38%. It also gave an Efficacy (Mus musculus [24]) of 3%, an Efficacy (Mus musculus [25]) of 92% and an Efficacy (Mus musculus [26]) of -6%.
